A word on the Ki: it is the dissociation constant of the complex between target and ligand, obtained from inhibition or displacement. What is called melting point is the temperature of the solid-liquid transition.

Where a name gives a salt, the structure may show the parent alone.

T1 sequence (Q9EQD2 whole entry): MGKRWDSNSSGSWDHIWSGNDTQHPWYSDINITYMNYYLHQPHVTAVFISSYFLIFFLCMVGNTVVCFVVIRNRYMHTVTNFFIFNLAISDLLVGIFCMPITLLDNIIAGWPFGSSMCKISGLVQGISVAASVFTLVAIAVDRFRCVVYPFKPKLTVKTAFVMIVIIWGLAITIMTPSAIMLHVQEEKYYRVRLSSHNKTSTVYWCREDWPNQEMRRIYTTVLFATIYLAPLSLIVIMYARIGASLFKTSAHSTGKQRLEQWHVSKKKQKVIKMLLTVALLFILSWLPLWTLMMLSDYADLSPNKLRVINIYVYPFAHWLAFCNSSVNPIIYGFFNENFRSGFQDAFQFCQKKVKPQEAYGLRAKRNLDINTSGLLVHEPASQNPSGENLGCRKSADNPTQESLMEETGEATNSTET

One data set concerns the target T1, rat NPFF2 receptor (Rattus norvegicus, UniProt Q9EQD2).
T1 construct: The full-length NPFF2 was amplified from rat spinal cord cDNA; expressed in transfected cells; host or cells: not given
In words: Functional assay (agonist potency, intrinsic activity) at cloned rat NPFF2 receptor. The data set is classed as cell-based. Particulars: Table 7, intrinsic activity.
For the molecule `Cc1nc(NC(=N)N)nc2cc(C(C)(C)C)ccc12` [Compound 1022A, N-[7-(tert-butyl)-4-methyl-2-quinazolinyl]guanidine], the “rNPFF2 IA” value was determined as 81% NPFF.
Same read-out and setting: the result for `Cc1nc(NC(=N)N)nc2cc3c(cc12)CCC3` [Compound 1038A, N-(4-methyl-7,8-dihydro-6H-cyclopenta[g]quinazolin-2-yl)guanidine] reads 74% NPFF; that for `CCC(C)c1ccc2nc(NC(=N)N)nc(C)c2c1` (stereo not drawn) [Compound 2002A, N-(6-sec-butyl-4-methyl-2-quinazolinyl)guanidine], 92% NPFF.

The target of the next data set is T2, human α2C adrenergic receptor (Homo sapiens, UniProt P18825).
T2 construct: host or cells: LM(tk-) cells, line L-α2C
T2 sequence (P18825 1-462): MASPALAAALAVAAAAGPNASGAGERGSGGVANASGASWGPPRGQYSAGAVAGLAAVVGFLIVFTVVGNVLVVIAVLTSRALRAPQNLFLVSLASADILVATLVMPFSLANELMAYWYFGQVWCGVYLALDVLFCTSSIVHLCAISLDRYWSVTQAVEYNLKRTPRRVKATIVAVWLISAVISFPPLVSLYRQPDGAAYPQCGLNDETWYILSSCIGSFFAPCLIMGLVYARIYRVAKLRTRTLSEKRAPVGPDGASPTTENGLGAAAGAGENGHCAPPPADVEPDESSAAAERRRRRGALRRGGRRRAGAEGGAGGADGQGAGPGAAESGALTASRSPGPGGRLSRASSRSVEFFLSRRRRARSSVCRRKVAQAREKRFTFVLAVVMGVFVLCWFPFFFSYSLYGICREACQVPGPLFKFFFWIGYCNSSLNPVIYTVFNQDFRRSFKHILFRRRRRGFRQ
In words: Binding at human α2C adrenergic receptor. Particulars: Table 8; read-out: hα2C Ki. The text has this:
(§1) α2 Human Adrenergic Receptors: To determine the binding of compounds to human α2 receptors, LM(tk−) cell lines stably transfected with the genes encoding the α2A, α2B, and α2C receptors were used. The cell line expressing the α2A receptor is designated L-α2A, and was deposited on Nov. 6, 1992, under ATCC Accession No. CRL 11180. The cell line expressing the α2B receptor is designated L-NGC-α2B, and was deposited on Oct. 25, 1989, under ATCC Accession No. CRL 10275. The cell line expressing the α2C receptor is designated L-α2C, and was deposited on Nov. 6, 1992, under ATCC Accession No. CRL-11181. Cell lysates were prepared as described herin, and suspended in 25 mM glycyiglycine buffer (pH 7.6 at room temperature). Equilibrium competition binding assay were performed using […] (0.5 nM), and nonspecific binding was determined by incubation with 10 μM phentolamine. The bound radioligand was separated by filtration through GF/B filters using a cell harvester.
(§2) The binding affinity (Ki) of these compounds were tested according to the protocols described herein at the following receptors; human α1A, α1B, α1D, α2A, α2B, and α2C adrenergic receptors; human Y1, Y2, Y4, and Y5 receptors; and N-Methyl-D-aspartic acid (NMDA) receptor channels. The binding interactions of these compounds were additionally tested at the norepinephrine (NE) transporter (NE uptake) and serotonin (5-hydroxytryptamine (5HT)) transporter (5HT uptake) according to protocols described herein
With `CCC(C)c1ccc2nc(NC(=N)N)nc(C)c2c1` (stereo not drawn) [Compound 2002A, N-(6-sec-butyl-4-methyl-2-quinazolinyl)guanidine], the Ki came out at 3.33 µM.

Another data set deals with distension induced contractions of the rat bladder.
Experiment: not given
Particulars: drugs used therapeutically in humans, from publications; cited from earlier work.
Consider `CCN(CC)CC#CCOC(=O)C(O)(c1ccccc1)C1CCCCC1` (stereo not drawn) [oxybutynin], for which the “activity in the DIRC model” value is “active”.
Take `CC(CC(c1ccccc1)c1ccccc1)NC(C)(C)C` (stereo not drawn) [terodiline]: the “activity in the DIRC model” value was “active”.

For a further data set, the target named is T3, rat NPFF1 receptor (Rattus norvegicus, UniProt Q9EP86).
T3 construct: expressed in transfected cells; host or cells: not given
T3 sequence (Q9EP86 whole entry): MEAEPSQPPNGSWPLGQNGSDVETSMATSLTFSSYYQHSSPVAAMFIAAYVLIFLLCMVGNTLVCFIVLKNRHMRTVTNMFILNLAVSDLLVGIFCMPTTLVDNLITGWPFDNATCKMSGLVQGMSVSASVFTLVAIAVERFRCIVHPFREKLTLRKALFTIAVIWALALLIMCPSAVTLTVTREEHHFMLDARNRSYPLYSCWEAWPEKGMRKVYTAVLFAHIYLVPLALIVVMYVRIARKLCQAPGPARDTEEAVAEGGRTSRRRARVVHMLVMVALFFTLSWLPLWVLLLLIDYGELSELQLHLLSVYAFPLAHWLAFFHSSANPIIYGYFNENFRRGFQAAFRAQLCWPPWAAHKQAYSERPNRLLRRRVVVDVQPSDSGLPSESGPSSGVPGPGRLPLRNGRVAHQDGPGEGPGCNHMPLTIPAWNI
In words: Functional assay (agonist potency, intrinsic activity) at cloned rat NPFF1 receptor. Particulars: Table 7, intrinsic activity. The class given is cell-based.
Regarding `Cc1nc(NC(=N)N)nc2cc(C(C)(C)C)ccc12` [Compound 1022A, N-[7-(tert-butyl)-4-methyl-2-quinazolinyl]guanidine], the “rNPFF1 IA” value came out at 19% NPFF.
On the same count and under the same terms, the result for `CCC(C)c1ccc2nc(NC(=N)N)nc(C)c2c1` (stereo not drawn) [Compound 2002A, N-(6-sec-butyl-4-methyl-2-quinazolinyl)guanidine] reads 51% NPFF.

Tested on in the next data set: not given
Experiment: not given
Details: not given
Consider `Cc1nc(NC(=N)N)nc2cc(OCc3ccccc3)ccc12` (as salt: salt) [Compound 1006A, N-[7-(benzyloxy)-4-methyl-2-quinazolinyl]guanidine], for which the melting point was 215 to 217 °C (dec.).
The same measure, in the same setting: the result for `Cc1cc2nc(NC(=N)N)nc(C)c2cc1O` (as salt: salt) [Compound 1017A, N-(6-hydroxy-4,7-dimethyl-2-quinazolinyl)guanidine] reads 246 to 248 °C (dec.); that for `Cc1nc(NC(=N)N)nc2cc(C(C)(C)C)ccc12` [Compound 1022A, N-[7-(tert-butyl)-4-methyl-2-quinazolinyl]guanidine], 195 to 198 °C (dec.); that for `Cc1nc(NC(=N)N)nc2cc3c(cc12)CCC3` [Compound 1038A, N-(4-methyl-7,8-dihydro-6H-cyclopenta[g]quinazolin-2-yl)guanidine], 295 to 298 °C (dec.).

Another data set concerns the target N-methyl-D-aspartate (NMDA) receptor channel complex. In words: Binding at native NMDA receptor channels. On the set-up: species or system rat. Particulars: Table 8. As for the experimental part: NMDA Receptor Channels: The methods to determine binding affinity at native N-methyl-D-aspartate (NMDA) receptor channels are described in Wong E. H. et al. (1988), the disclosure of which is hereby incorporated by reference in its entirety into this application.
as §2
`CCC(C)c1ccc2nc(NC(=N)N)nc(C)c2c1` (stereo not drawn) [Compound 2002A, N-(6-sec-butyl-4-methyl-2-quinazolinyl)guanidine] came in with a Ki of 7.62 µM.

Another data set has as its target T4, human α2B adrenergic receptor (Homo sapiens, UniProt P18089).
T4 construct: host or cells: LM(tk-) cells, line L-NGC-α2B
T4 sequence (P18089 1-450): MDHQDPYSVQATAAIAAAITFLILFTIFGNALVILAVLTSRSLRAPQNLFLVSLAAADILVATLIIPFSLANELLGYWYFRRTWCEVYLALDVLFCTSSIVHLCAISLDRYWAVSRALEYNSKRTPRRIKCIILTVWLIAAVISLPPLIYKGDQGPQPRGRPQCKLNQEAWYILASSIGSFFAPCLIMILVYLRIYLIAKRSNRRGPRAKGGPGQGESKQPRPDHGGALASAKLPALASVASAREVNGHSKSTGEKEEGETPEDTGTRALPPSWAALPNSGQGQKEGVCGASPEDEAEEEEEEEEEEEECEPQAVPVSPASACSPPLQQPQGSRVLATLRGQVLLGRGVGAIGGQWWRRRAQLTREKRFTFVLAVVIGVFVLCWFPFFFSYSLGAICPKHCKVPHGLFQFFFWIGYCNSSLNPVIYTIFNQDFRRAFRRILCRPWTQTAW
In words: Binding at human α2B adrenergic receptor. Particulars: Table 8; read-out: hα2B Ki.
Excerpt: as §1, §2
`CCC(C)c1ccc2nc(NC(=N)N)nc(C)c2c1` (stereo not drawn) [Compound 2002A, N-(6-sec-butyl-4-methyl-2-quinazolinyl)guanidine]: the Ki stood at 12.9 µM.

The target in the next data set is T5, human α2A adrenergic receptor (Homo sapiens, UniProt P08913).
T5 construct: host or cells: LM(tk-) cells, line L-α2A
T5 sequence (P08913 1-465): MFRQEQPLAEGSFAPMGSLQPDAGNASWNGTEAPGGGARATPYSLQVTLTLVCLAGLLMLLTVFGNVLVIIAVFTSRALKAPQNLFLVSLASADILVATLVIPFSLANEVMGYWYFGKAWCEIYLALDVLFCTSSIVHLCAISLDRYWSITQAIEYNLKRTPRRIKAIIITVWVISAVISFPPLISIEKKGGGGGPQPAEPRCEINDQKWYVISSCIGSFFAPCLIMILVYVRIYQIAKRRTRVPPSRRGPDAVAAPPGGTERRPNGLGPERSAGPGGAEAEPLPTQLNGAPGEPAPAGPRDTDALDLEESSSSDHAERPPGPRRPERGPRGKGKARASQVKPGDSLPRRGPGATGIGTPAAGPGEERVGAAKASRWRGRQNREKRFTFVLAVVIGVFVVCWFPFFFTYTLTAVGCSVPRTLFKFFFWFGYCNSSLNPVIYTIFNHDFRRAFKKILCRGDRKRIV
As to the kind of experiment: Binding at human α2A adrenergic receptor. Particulars: Table 8; read-out: hα2A Ki.
Excerpt: as §1, §2
`CCC(C)c1ccc2nc(NC(=N)N)nc(C)c2c1` (stereo not drawn) [Compound 2002A, N-(6-sec-butyl-4-methyl-2-quinazolinyl)guanidine]: the Ki came to 0.713 µM.

The values above are taken from patent US20030176314A1, “Compounds for the treatment of pain” (priority 2001, published 2003).
